Literature values, collected in US20240173460A1, “STORAGE SOLUTIONS FOR MAINTAINING OF AXONAL VIABILITY” (Board of Regents, The University of Texas System, priority 2022, published 2024).

For `[Cl-].[K+]` [Potassium Chloride], the solubility in water is listed as “freely soluble in water”.
